Test [1] deals with Carbonic anhydrase 12 (Homo sapiens) (UniProt O43570). Kind of test: Activation of transmembrane human carbonic anhydrase-12 incubated for 15 mins prior to testing by stopped-flow CO2 hydrase assay.
The target in test [2] is Carbonic anhydrase 1 (Homo sapiens) (UniProt P00915). As to the kind of experiment: Activation of […] human carbonic anhydrase-1 incubated for 15 mins prior to testing by stopped-flow CO2 hydrase assay.
In test [3] the target is Carbonic anhydrase 7 (Homo sapiens) (UniProt P43166). As to the kind of experiment: Activation of […] human carbonic anhydrase-7 incubated for 15 mins prior to testing by stopped-flow CO2 hydrase assay.
The target of test [4] is Carbonic anhydrase 14 (Homo sapiens) (UniProt Q9ULX7). Kind of test: Activation of transmembrane human carbonic anhydrase-14 incubated for 15 mins prior to testing by stopped-flow CO2 hydrase assay.
Test [5] has as its target Carbonic anhydrase 2 (Homo sapiens) (UniProt P00918). Kind of test: Activation of […] human carbonic anhydrase-2 incubated for 15 mins prior to testing by stopped-flow CO2 hydrase assay.

Chain of Carbonic anhydrase 1 (Homo sapiens) (P00915 2-261 limits assumed): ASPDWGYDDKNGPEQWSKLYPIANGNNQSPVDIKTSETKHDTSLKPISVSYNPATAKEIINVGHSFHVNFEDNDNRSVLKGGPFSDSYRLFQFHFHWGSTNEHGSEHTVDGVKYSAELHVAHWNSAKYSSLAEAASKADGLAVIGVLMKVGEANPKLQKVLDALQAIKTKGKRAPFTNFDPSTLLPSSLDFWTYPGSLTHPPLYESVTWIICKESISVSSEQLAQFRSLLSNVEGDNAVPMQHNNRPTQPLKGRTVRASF
Chain of Carbonic anhydrase 12 (Homo sapiens) (O43570 whole entry): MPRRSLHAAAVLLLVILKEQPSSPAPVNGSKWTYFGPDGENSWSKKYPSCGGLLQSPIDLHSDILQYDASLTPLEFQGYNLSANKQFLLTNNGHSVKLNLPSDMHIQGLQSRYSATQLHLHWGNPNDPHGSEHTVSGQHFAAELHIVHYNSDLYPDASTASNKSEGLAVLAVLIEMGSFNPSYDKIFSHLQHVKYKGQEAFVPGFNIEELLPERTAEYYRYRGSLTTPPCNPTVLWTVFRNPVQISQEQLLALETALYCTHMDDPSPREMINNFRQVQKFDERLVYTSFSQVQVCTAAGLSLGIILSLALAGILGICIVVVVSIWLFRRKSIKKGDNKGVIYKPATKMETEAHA
Chain of Carbonic anhydrase 14 (Homo sapiens) (Q9ULX7 whole entry): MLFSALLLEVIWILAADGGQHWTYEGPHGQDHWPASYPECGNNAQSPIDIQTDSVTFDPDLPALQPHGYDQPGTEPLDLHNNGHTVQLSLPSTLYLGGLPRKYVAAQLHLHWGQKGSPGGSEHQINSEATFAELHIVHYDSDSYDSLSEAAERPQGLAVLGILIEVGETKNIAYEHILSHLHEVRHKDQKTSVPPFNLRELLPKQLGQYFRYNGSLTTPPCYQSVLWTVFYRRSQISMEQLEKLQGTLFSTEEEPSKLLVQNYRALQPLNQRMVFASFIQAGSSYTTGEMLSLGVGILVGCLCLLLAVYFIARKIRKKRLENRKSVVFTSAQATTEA
Chain of Carbonic anhydrase 7 (Homo sapiens) (P43166 whole entry): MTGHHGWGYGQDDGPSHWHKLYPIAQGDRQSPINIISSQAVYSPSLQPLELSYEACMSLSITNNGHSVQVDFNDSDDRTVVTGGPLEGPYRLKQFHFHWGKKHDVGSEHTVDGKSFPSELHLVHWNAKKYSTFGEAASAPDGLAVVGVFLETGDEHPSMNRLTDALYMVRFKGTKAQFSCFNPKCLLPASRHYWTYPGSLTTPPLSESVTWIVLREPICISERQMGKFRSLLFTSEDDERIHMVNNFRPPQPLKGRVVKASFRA

`NCCc1nc[nH]c1Cl`: the KA in test [1] was 12.1 µM; in test [2], 0.021 µM; in test [3], 15.3 µM; in test [4] it was 38.7 µM; in test [5], 0.115 µM.
Taken in the same sequence, the figures for `COC(=O)[C@@H](N)Cc1nc(Br)[nH]c1Br` were 0.83 µM, 1.4 µM, 9.7 µM, 22.1 µM and 1.08 µM.
Regarding `COC(=O)[C@H](Cc1nc(Br)[nH]c1Br)NC(=O)OC(C)(C)C`, the KA in test [1] was determined as 1.62 µM; in test [2] it was 0.032 µM; in test [3] it was 13.1 µM; in test [4], 3.51 µM; in test [5] it was 0.96 µM.
Taken in the same sequence, the figures for `CC(C)(C)OC(=O)NCCc1nc[nH]c1I` were 44.3 µM, 29.3 µM, 21.5 µM, 30.9 µM and 13.6 µM.
Regarding `NCCc1nc(I)[nH]c1I`, the KA in test [1] stood at 34.6 µM; in test [2], 0.0007 µM; in test [3], 1.39 µM; in test [4] it was 15.5 µM; in test [5], 0.001 µM.
The matching figures for `CC(C)(C)OC(=O)NCCc1nc(I)[nH]c1I`: 35 µM, 12.1 µM, 45.6 µM, 37.1 µM and 36.7 µM.
Taken in the same sequence, the figures for `COC(=O)[C@H](Cc1nc(Br)[nH]c1Br)NC(=O)CCN` were 1.84 µM, 30.7 µM, 0.0081 µM, 18.9 µM and 4.1 µM.
`CC(C)(C)OC(=O)NCCc1nc(Cl)[nH]c1Cl`: the KA in test [1] is 40.2 µM; in test [2] it was 16.5 µM; in test [3], 13.1 µM; in test [4], 28.1 µM; in test [5], 24.8 µM.
The matching figures for `COC(=O)[C@@H](N)Cc1nc[nH]c1I`: 14.3 µM, 0.0012 µM, 6.2 µM, 7.8 µM and 0.32 µM.
Taken in the same sequence, the figures for `COC(=O)[C@H](Cc1nc[nH]c1Cl)NC(=O)CCN` were 21.5 µM, 1.25 µM, 0.013 µM, 15.3 µM and 30.9 µM.
Take `COC(=O)[C@H](Cc1nc[nH]c1I)NC(=O)OC(C)(C)C`: the KA in test [1] worked out at 6.1 µM; in test [2] it was 0.0009 µM; in test [3] it was 38.5 µM; in test [4] it was 13.5 µM; in test [5] it was 0.012 µM.
On to `COC(=O)[C@H](Cc1nc(Cl)[nH]c1Cl)NC(=O)CCNC(=O)OC(C)(C)C`, for which the KA in test [1] is 9.7 µM; in test [2] it was 10.1 µM; in test [3] it was 0.12 µM; in test [4], 33.5 µM; in test [5] it was 18.6 µM.
The matching figures for `CC(C)(C)OC(=O)NCCc1nc(Br)[nH]c1Br`: 37.4 µM, 13.3 µM, 28.3 µM, 29.5 µM and 28.5 µM.
The matching figures for `COC(=O)[C@H](Cc1nc(Br)[nH]c1Br)NC(=O)CCNC(=O)OC(C)(C)C`: 31.6 µM, 21.5 µM, 4 µM, 40.8 µM and 34.8 µM.
As for `COC(=O)[C@H](Cc1nc(I)[nH]c1I)NC(=O)CCN`, the KA in test [1] is 10.5 µM; in test [2] it was 21.4 µM; in test [3], 3.5 µM; in test [4] it was 20.1 µM; in test [5] it was 2.9 µM.
Taken in the same sequence, the figures for `COC(=O)[C@H](Cc1nc[nH]c1Br)NC(=O)CCN` were 30.7 µM, 2.1 µM, 1.02 µM, 28.4 µM and 1.78 µM.
The matching figures for `COC(=O)[C@@H](N)Cc1nc[nH]c1Cl`: 0.078 µM, 21.3 µM, 36.1 µM, 6.4 µM and 13.1 µM.
As for `COC(=O)[C@H](Cc1c[nH]cn1)NC(=O)CCN`, the KA in test [1] came out at 0.96 µM; in test [2], 10.9 µM; in test [3] it was 0.84 µM; in test [4], 0.71 µM; in test [5] it was 32 µM.
The matching figures for `COC(=O)[C@H](Cc1nc(Cl)[nH]c1Cl)NC(=O)OC(C)(C)C`: 25.3 µM, 2.45 µM, 50.7 µM, 1.4 µM and 40.3 µM.
Taken in the same sequence, the figures for `COC(=O)[C@H](Cc1nc(I)[nH]c1I)NC(=O)CCNC(=O)OC(C)(C)C` were 40.5 µM, 18.7 µM, 0.74 µM, 52.7 µM and 8.2 µM.
Taken in the same sequence, the figures for `COC(=O)[C@@H](N)Cc1nc[nH]c1Br` were 1.01 µM, 13.6 µM, 12.3 µM, 5.2 µM and 10.4 µM.
Regarding `COC(=O)[C@@H](N)Cc1c[nH]cn1`, the KA was 0.91 µM in test [1]; 0.02 µM in test [2]; 0.88 µM in test [3]; 0.93 µM in test [4]; 10.4 µM in test [5].
With `COC(=O)[C@H](Cc1nc[nH]c1Cl)NC(=O)OC(C)(C)C`, the KA in test [1] came out at 42.5 µM; in test [2], 10.1 µM; in test [3], 47.6 µM; in test [4], 24.1 µM; in test [5] it was 29 µM.
As to `NCCc1nc(Cl)[nH]c1Cl`, the KA in test [1] amounted to 5.7 µM; in test [2], 0.018 µM; in test [3], 0.041 µM; in test [4], 38.9 µM; in test [5], 0.032 µM.
Taken in the same sequence, the figures for `NCCc1nc(Br)[nH]c1Br` were 25.2 µM, 0.012 µM, 0.74 µM, 13.1 µM and 0.008 µM.
Taken in the same sequence, the figures for `NCCc1nc[nH]c1Br` were 3.2 µM, 0.015 µM, 5.2 µM, 16.2 µM and 0.096 µM.
The matching figures for `COC(=O)[C@H](Cc1nc(Cl)[nH]c1Cl)NC(=O)CCN`: 0.072 µM, 22.5 µM, 0.01 µM, 10.3 µM and 10.9 µM.
As to `COC(=O)[C@@H](N)Cc1nc(Cl)[nH]c1Cl`, the KA in test [1] is 27.1 µM; in test [2], 31.2 µM; in test [3], 24.9 µM; in test [4], 20.6 µM; in test [5] it was 10.5 µM.
As for `COC(=O)[C@H](Cc1nc[nH]c1I)NC(=O)CCN`, the KA in test [1] was found to be 40.1 µM; in test [2] it was 7.6 µM; in test [3], 1.06 µM; in test [4] it was 39.2 µM; in test [5], 1.6 µM.
The matching figures for `COC(=O)[C@H](Cc1nc[nH]c1Br)NC(=O)CCNC(=O)OC(C)(C)C`: 24.9 µM, 2.6 µM, 5.2 µM, 36.5 µM and 0.97 µM.
Taken in the same sequence, the figures for `NCCc1nc[nH]c1I` were 0.9 µM, 0.0009 µM, 7.6 µM, 7.1 µM and 0.065 µM.
The matching figures for `COC(=O)[C@H](Cc1nc[nH]c1Br)NC(=O)OC(C)(C)C`: 10.7 µM, 7.3 µM, 40.2 µM, 0.92 µM and 26.5 µM.
`COC(=O)[C@H](Cc1nc(I)[nH]c1I)NC(=O)OC(C)(C)C`: the KA in test [1] was determined as 64.7 µM; in test [2] it was 0.0015 µM; in test [3], 10.3 µM; in test [4], 34.9 µM; in test [5], 0.013 µM.
Take `CC(C)(C)OC(=O)NCCc1nc[nH]c1Br`: the KA in test [1] came out at 52.8 µM; in test [2], 7.1 µM; in test [3], 10.4 µM; in test [4], 34.7 µM; in test [5], 44.5 µM.
Regarding `COC(=O)[C@@H](N)Cc1nc(I)[nH]c1I`, the KA in test [1] is 10.9 µM; in test [2], 0.96 µM; in test [3], 3.6 µM; in test [4], 24.3 µM; in test [5], 1.12 µM.
Taken in the same sequence, the figures for `CC(C)(C)OC(=O)NCCc1nc[nH]c1Cl` were 18.8 µM, 5.4 µM, 24.9 µM, 45.2 µM and 50.2 µM.
Turning to `COC(=O)[C@H](Cc1nc[nH]c1Cl)NC(=O)CCNC(=O)OC(C)(C)C`, the KA in test [1] was 2.5 µM; in test [2] it was 34.3 µM; in test [3] it was 12.1 µM; in test [4], 7.9 µM; in test [5], 48.5 µM.
Taken in the same sequence, the figures for `COC(=O)[C@H](Cc1nc[nH]c1I)NC(=O)CCNC(=O)OC(C)(C)C` were 28.7 µM, 4.3 µM, 0.81 µM, 24.6 µM and 5.2 µM.
